# According to patent publication US20240199546A1, “INHIBITORS OF SOLUTE CARRIER FAMILY 6A MEMBER 19 (SLC6A19) AND METHODS OF USE THEREOF” (Maze Therapeutics, Inc., priority 2022, published 2024):
# Molecular target: T1, human SLC6A19 and TMEM27 (Homo sapiens, UniProt Q695T7)
# T1 construct: expressed in transfected cells
# T1 sequence (Q695T7 1-634): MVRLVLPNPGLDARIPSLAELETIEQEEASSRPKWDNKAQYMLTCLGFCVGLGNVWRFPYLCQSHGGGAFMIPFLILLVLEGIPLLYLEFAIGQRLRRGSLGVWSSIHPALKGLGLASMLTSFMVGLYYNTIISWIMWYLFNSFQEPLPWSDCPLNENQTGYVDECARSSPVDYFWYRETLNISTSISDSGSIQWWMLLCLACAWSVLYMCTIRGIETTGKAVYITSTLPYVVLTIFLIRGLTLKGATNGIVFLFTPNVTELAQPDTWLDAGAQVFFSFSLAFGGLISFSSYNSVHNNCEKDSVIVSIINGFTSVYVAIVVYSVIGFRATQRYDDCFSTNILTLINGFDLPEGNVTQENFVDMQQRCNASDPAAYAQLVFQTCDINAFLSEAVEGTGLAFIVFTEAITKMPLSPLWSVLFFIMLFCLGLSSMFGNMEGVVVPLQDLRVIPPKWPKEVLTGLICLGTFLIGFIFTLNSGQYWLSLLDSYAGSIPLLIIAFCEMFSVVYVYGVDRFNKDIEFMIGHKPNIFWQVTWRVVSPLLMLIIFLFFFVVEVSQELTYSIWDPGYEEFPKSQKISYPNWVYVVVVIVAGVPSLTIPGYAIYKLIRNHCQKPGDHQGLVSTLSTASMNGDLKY
# T1 sequence (Q9HBJ8 15-222 partner): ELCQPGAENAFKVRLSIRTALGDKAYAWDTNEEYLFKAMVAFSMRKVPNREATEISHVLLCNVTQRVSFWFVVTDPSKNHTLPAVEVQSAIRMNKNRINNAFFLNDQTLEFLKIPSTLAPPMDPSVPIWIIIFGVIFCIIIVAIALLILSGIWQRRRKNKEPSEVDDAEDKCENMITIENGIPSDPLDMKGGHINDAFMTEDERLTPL
# Experiment: Radiolabelled (3H) leucine uptake in CHO cells with doxycycline-inducible expression of human SLC6A19 and TMEM27 (Example B-1)
# Format: cell-based
# Conditions: CHO cells with doxycycline-inducible expression of human SLC6A19 and TMEM27, read-out: SLC6A19_Radioligand Uptake Assay IC50
# Summary of the method: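 CHO cells were induced with doxycycline for 18 h at 37 °C, washed in HBSS, then exposed to compounds for 1 h: 8-point, 3-fold dilutions in duplicate, 0.5% DMSO final. Uptake measured by scintillation counting after 2 h shaking. Activity normalized with positive control as 0% and DMSO as 100%.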
row,Compound,IC50
1,"CC1(C(=O)NCc2cc3cc(Cl)c(OCCc4ccon4)cc3[nH]2)CC1 [Compound 103, N-((5-chloro-6-(2-(isoxazol-3-yl)ethoxy)-1H-indol-2-yl)methyl)-1-methylcyclopropane-1-carboxamide]",114 nM
2,"C[C@H]1CCN1C(=O)NCc1cc2cc(Cl)c(OCc3ccon3)cc2[nH]1 [Compound 362, (S)-N-((5-chloro-6-(isoxazol-3-ylmethoxy)-1H-indol-2-yl)methyl)-2-methylazetidine-1-carboxamide]",983 nM
3,"CCNC(=O)NCc1cc2cc(Cl)c(OCc3cc(C)no3)cc2[nH]1 [Compound 369, 1-((5-chloro-6-((3-methylisoxazol-5-yl)methoxy)-1H-indol-2-yl)methyl)-3-ethylurea]",125 nM
4,"Cc1cc(COc2cc3[nH]c(CNC(=O)C4(C#N)CC4)cc3cc2Cl)on1 [Compound 484, N-((5-chloro-6-((3-methylisoxazol-5-yl)methoxy)-1H-indol-2-yl)methyl)-1-cyanocyclopropane-1-carboxamide]",199 nM
5,"Cc1cc(COc2cc3[nH]c(CNC(=O)C(C)F)cc3cc2Cl)on1 (racemic) [Compound 442, (S)-N-((5-chloro-6-((3-methylisoxazol-5-yl)methoxy)-1H-indol-2-yl)methyl)-2-fluoropropanamide and (R)-N-((5-chloro-6-((3-methylisoxazol-5-yl)methoxy)-1H-indol-2-yl)methyl)-2-fluoropropanamide]",75.2 nM
6,"O=C(NCc1cc2cc(Cl)c(OCc3cscn3)cc2[nH]1)C1COC1 [Compound 261, N-((5-chloro-6-(thiazol-4-ylmethoxy)-1H-indol-2-yl)methyl)oxetane-3-carboxamide]",105 nM
7,"CC(=O)NCc1cc2cc(F)c(OCc3cocn3)cc2[nH]1 [Compound 224, N-((5-fluoro-6-(oxazol-4-ylmethoxy)-1H-indol-2-yl)methyl)acetamide]",545 nM
8,"CC(=O)NCc1cc2cc(Cl)c(OCc3cscn3)cc2[nH]1 [Compound 141, N-((5-chloro-6-(thiazol-4-ylmethoxy)-1H-indol-2-yl)methyl)acetamide]",87 nM
9,"Cc1nc(COc2cc3[nH]c(CNC(=O)C4(C)CC4)cc3cc2Cl)no1 [Compound 318, N-((5-chloro-6-((5-methyl-1,2,4-oxadiazol-3-yl)methoxy)-1H-indol-2-yl)methyl)-1-methylcyclopropane-1-carboxamide]",226 nM
10,"Cc1cc(COc2cc3[nH]c(CNC(=O)CC4CCCO4)cc3cc2Cl)on1 (stereo not shown) [Compound 310, N-((5-chloro-6-((3-methylisoxazol-5-yl)methoxy)-1H-indol-2-yl)methyl)-2-(tetrahydrofuran-2-yl)acetamide]",2520 nM
11,"Cc1cc(COc2cc3[nH]c(CNC(=O)[C@@H]4COCCO4)cc3cc2Cl)on1 [Compound 303, (S)-N-((5-chloro-6-((3-methylisoxazol-5-yl)methoxy)-1H-indol-2-yl)methyl)-1,4-dioxane-2-carboxamide]",814 nM
12,"Cc1cc(COc2cc3[nH]c(CNC(=O)[C@H]4COCCN4C)cc3cc2Cl)on1 [Compound 302, (R)-N-((5-chloro-6-((3-methylisoxazol-5-yl)methoxy)-1H-indol-2-yl)methyl)-4-methylmorpholine-3-carboxamide]",7110 nM
13,"CC1(C(=O)NCc2cc3cc(F)c(OCc4ccno4)cc3[nH]2)CC1 [Compound 328, N-((5-fluoro-6-(isoxazol-5-ylmethoxy)-1H-indol-2-yl)methyl)-1-methylcyclopropane-1-carboxamide]",147 nM
14,"CC1(C(=O)NCc2cc3cc(C4CC4(F)F)c(OCc4ccon4)cc3[nH]2)CC1 (racemic) [Compound 658, N-((5-(2,2-difluorocyclopropyl)-6-(isoxazol-3-ylmethoxy)-1H-indol-2-yl)methyl)-1-methylcyclopropane-1-carboxamide]",590 nM
15,"CC(C#N)C(=O)NCc1cc2cc(Cl)c(OCc3cscn3)cc2[nH]1 (racemic) [Compound 445, (S)-N-((5-chloro-6-(thiazol-4-ylmethoxy)-1H-indol-2-yl)methyl)-2-cyanopropanamide and (R)-N-((5-chloro-6-(thiazol-4-ylmethoxy)-1H-indol-2-yl)methyl)-2-cyanopropanamide]",444 nM
16,"CC1(C(=O)NCc2cc3cc(OC(F)(F)F)c(OCc4cocn4)cc3[nH]2)CC1 [Compound 439, 1-methyl-N-((6-(oxazol-4-ylmethoxy)-5-(trifluoromethoxy)-1H-indol-2-yl)methyl)cyclopropane-1-carboxamide]",327 nM
17,"CC1(C(=O)NCc2cc3cc(Cl)c(OCCC4CC4)cc3[nH]2)CC1 [Compound 635, N-((5-chloro-6-(2-cyclopropylethoxy)-1H-indol-2-yl)methyl)-1-methylcyclopropane-1-carboxamide]",193 nM
18,"O=C(CC(F)F)NCc1cc2cc(F)c(OCc3cscn3)cc2[nH]1 [Compound 516, 3,3-difluoro-N-((5-fluoro-6-(thiazol-4-ylmethoxy)-1H-indol-2-yl)methyl)propanamide]",88.9 nM
19,"[2H]C([2H])(NC(C)=O)c1cc2cc(Cl)c(OCc3cc(C)no3)cc2[nH]1 [Compound 345, N-((5-chloro-6-((3-methylisoxazol-5-yl)methoxy)-1H-indol-2-yl)methyl-d2)acetamide]",62.7 nM
20,"O=C(NCc1cc2ccc(OCc3ccon3)cc2[nH]1)N1CCOCC1 [Compound 199, N-((6-(isoxazol-3-ylmethoxy)-1H-indol-2-yl)methyl)morpholine-4-carboxamide]",1370 nM
21,"Cc1cc(COc2cc(F)c3cc(CNC(=O)N4CCC4)[nH]c3c2)on1 [Compound 427, N-((4-fluoro-6-((3-methylisoxazol-5-yl)methoxy)-1H-indol-2-yl)methyl)azetidine-1-carboxamide]",634 nM
22,"Cc1cc(COc2cc3[nH]c(CNC(=O)NCCF)cc3cc2Cl)on1 [Compound 371, 1-((5-chloro-6-((3-methylisoxazol-5-yl)methoxy)-1H-indol-2-yl)methyl)-3-(2-fluoroethyl)urea]",141 nM
23,"COCC(=O)NCc1cc2cc(Cl)c(OCc3cc(C)no3)cc2[nH]1 [Compound 272, N-((5-chloro-6-((3-methylisoxazol-5-yl)methoxy)-1H-indol-2-yl)methyl)-2-methoxyacetamide]",78.9 nM
24,"CC1CCCN1C(=O)NCc1cc2cc(Cl)c(OCc3ccon3)cc2[nH]1 (stereo not shown) [Compound 86, N-((5-chloro-6-(isoxazol-3-ylmethoxy)-1H-indol-2-yl)methyl)-2-methylpyrrolidine-1-carboxamide]",490 nM
25,"O=C(NCc1cc2cc(Cl)c(OCc3cscn3)cc2[nH]1)[C@@H]1CCO1 [Compound 315, (S)-N-((5-chloro-6-(thiazol-4-ylmethoxy)-1H-indol-2-yl)methyl)oxetane-2-carboxamide]",148 nM
26,"Cc1cc(COc2cc3[nH]c(CNC(=O)CN(C)C)cc3cc2Cl)on1 [Compound 579, N-((5-chloro-6-((3-methylisoxazol-5-yl)methoxy)-1H-indol-2-yl)methyl)-2-(dimethylamino)acetamide]",587 nM
27,"CC(C)c1cc2cc(CNC(=O)C3(C)CC3)[nH]c2cc1OCc1cscn1 [Compound 186, N-((5-isopropyl-6-(thiazol-4-ylmethoxy)-1H-indol-2-yl)methyl)-1-methylcyclopropane-1-carboxamide]",968 nM
28,"CC1(C(=O)NCc2cc3cc(-c4cnco4)c(OCc4cscn4)cc3[nH]2)CC1 [Compound 661, 1-methyl-N-((5-(oxazol-5-yl)-6-(thiazol-4-ylmethoxy)-1H-indol-2-yl)methyl)cyclopropane-1-carboxamide]",1000 nM
